Measured values as given in US20040253665A1, “Novel peptide-producing enzyme, microbe producing the enzyme and method for dipeptide synthesis using them” (AJINOMOTO CO., INC., priority 2002, published 2004).
Non-standard residues stand in square brackets, D forms with d. Residues, ends and D or L forms follow the SMILES beside them. *: point of attachment. Tle = CC(C)(C)[C@H](N)C(=O)O; NMeA = CN[C@@H](C)C(=O)O; Boc = CC(C)(C)OC(=O)*; Aib = CC(C)(N)C(=O)O; OtBu = CC(C)(C)O*; tBu = CC(C)(C)*

tested on: peptide-producing enzyme (Mono S fraction) from Empedobacter brevis strain FERM BP-8113; experiment: Enzyme substrate specificity (1)-(10), (13), (14); type: biochemical; details: L or D amino acid methyl ester hydrochloride 100 mM, L or D amino acid 150 mM, pH 9.0, 25° C., 3 hours
Description: Ester specificity was examined in the case of using L-amino acid ester for the carboxy component. […] The amounts of L-Ala-L-Gln produced in this reaction are shown in Table 4 (HCl represents hydrochloride in Table 4). Peptide production was examined in the case of using L-alanine methyl ester for the carboxy component and using various L-amino acids for the amine component. […] (The “+” mark indicates those peptides for which production was confirmed but which were unable to be quantified due to the absence of a standard, while “tr” indicates a trace amount.) Peptide production was examined in the case of using various types of L-amino acid methyl esters for the carboxy component and using L-glutamine for the amine component. […] Peptide production was examined in the case of using various L-amino acid methyl esters for the carboxy component and various L-amino acids for the amine component. […] (The “tr” indicates a trace amount.) Furthermore, Tween-80 was added to the reaction system to a final concentration of 0.1% in the case of using L-Trp-OMe. (The “+” mark indicates those peptides for which production was confirmed but which were unable to be quantified due to the absence of a standard.) […] (The “tr” indicates a trace amount.) Peptide production was examined using various L-amino acid amides for the carboxy component, and various L-amino acids for the amine component. […] Peptide production was examined in the case of using various L-alanine methyl esters for the carboxy component and C-protected L-amino acids for the amine component. […] Peptide production was examined in the case of using various amino acid methyl esters for the carboxy component and methylamine for the amine component. […] Peptide production was examined in the case of using β-amino acid ester for the carboxy component or β-amino acid for the amine component. […] (The “tr” indicates a trace amount.) Oligopeptide production was examined in the case of using L-amino acid ester for the carboxy component and peptide for the amine component. […] Substrate specificity was additionally assessed using the same enzyme fraction as that used in Example 5. […] (A “+” mark indicates those for which production was confirmed but which were unable to be quantified due to the absence of a standard, while “tr” indicates a trace amount). Substrate specificity with respect to oligopeptide production was assessed using the same enzyme fraction as Example 26. […] (A “+” mark indicates those for which production was confirmed but which were unable to be quantified due to the absence of a standard, while “tr” indicates a trace amount). It should be noted that hydrochlorides were used for all of the carboxy components.

Row | Compound | Produced peptide [mM]
1 | CSCC[C@H](N)C(=O)N[C@H](CO)C(=O)O [L-Met-D-Ser] (H-Met-[dS]-OH) | 1.9
2 | N[C@H](CO)C(=O)N[C@@H](CO)C(=O)O [D-Ser-L-Ser] (H-[dS]-Ser-OH) | 3.3
3 | C[C@H](N)C(=O)N[C@H](CCC(N)=O)C(=O)O [L-Ala-D-Gln] (H-Ala-[dQ]-OH) | 0.3
4 | C[C@H](O)[C@@H](N)C(=O)N[C@@H](CO)C(=O)O [D-Thr-L-Ser] (H-[dT]-Ser-OH) | 1.0
5 | N[C@H](CO)C(=O)N[C@H](CO)C(=O)O [D-Ser-D-Ser] (H-[dS]-[dS]-OH) | 2.5
6 | CC(C)[C@@H](N)C(=O)N[C@@H](CO)C(=O)O [D-Val-L-Ser] (H-[dV]-Ser-OH) | 0.6
7 | C[C@@H](N)C(=O)N[C@@H](CCC(N)=O)C(=O)O [D-Ala-L-Gln] (H-[dA]-Gln-OH) | 69.3
8 | CC(C)[C@@H](N)C(=O)N[C@H](CO)C(=O)O [D-Val-D-Ser] (H-[dV]-[dS]-OH) | 0.5
9 | C[C@@H](O)[C@H](N)C(=O)N[C@H](CO)C(=O)O [L-Thr-D-Ser] (H-Thr-[dS]-OH) | 6.9
10 | C[C@H](O)[C@@H](N)C(=O)N[C@H](CO)C(=O)O [D-Thr-D-Ser] (H-[dT]-[dS]-OH) | 1.1

same assay, conditions: L-amino acid ester 100 mM, amino acid or peptide amine component 150 mM, pH 9.0, 25° C., 3 hours

Row | Compound | Produced peptide [mM]
11 | Gly-Gly-L-Gln | 7.2
12 | Gly-Gly-L-Tyr-L-Ala | 44.2

same assay, conditions: L-amino acid methyl ester hydrochloride 100 mM, L-amino acid 150 mM, pH 9.0, 25° C., 3 hours

Row | Compound | Produced peptide [mM]
13 | CSCC[C@H](NC(=O)[C@@H](N)Cc1cnc[nH]1)C(=O)O [L-His-L-Met] (H-His-Met-OH) | 6.5
14 | C[C@@H](O)[C@H](N)C(=O)N[C@@H](CO)C(=O)O [L-Thr-L-Ser] (H-Thr-Ser-OH) | 58.2
15 | CSCC[C@H](NC(=O)[C@@H](N)CCCCN)C(=O)O [L-Lys-L-Met] | 6.8

same assay, conditions: carboxy component 40 mM, amine component 40 mM, 0.1 unit enzyme, 25° C., reaction time 3 hr

Row | Compound | Produced peptide [mM]
16 | C[C@H](N)C(=O)N[C@@H](Cc1ccc([N+](=O)[O-])cc1)C(=O)O [H-Ala-p-NO2-Phe-OH] | 27.5
17 | NC(=O)CC[C@H](NC(=O)[C@@H](N)Cc1ccc([N+](=O)[O-])cc1)C(=O)O [H-p-NO2-Phe-H-Gln-OH] | 1.1

same assay, conditions: carboxy component 50 mM, amine component 50 mM, 0.1 unit enzyme, 25° C., reaction time 3 hr

Row | Compound | Produced peptide [mM]
18 | C[C@H](N)C(=O)N[C@@H](Cc1ccc(F)cc1)C(=O)O [H-Ala-p-F-Phe-OH] | 21.9

same assay, conditions: carboxy component 100 mM, amine component 150 mM, 0.1 unit enzyme, 25° C., reaction time 2 hr

Row | Compound | Produced peptide [mM]
19 | CC(C)(C)OC(=O)C[C@H](N)C(=O)N[C@@H](CCC(N)=O)C(=O)O [H-Asp (OtBu)-Gln-OH] (H-Asp(OtBu)-Gln-OH) | 0.9
20 | C[C@H](N)C(=O)N[C@@H](CCCCNC(=O)OC(C)(C)C)C(=O)O [H-Ala-Lys(Boc)-OH] (H-Ala-Lys(Boc)-OH) | 51.0
21 | C[C@H](N)C(=O)N[C@@H](COC(C)(C)C)C(=O)O [H-Ala-Ser(tBu)-OH] (H-Ala-Ser(tBu)-OH) | 48.8

same assay, conditions: carboxy component 100 mM, amine component 150 mM, 0.1 unit enzyme, 25° C., reaction time 3 hr

Row | Compound | Produced peptide [mM]
22 | CN[C@@H](C)C(=O)N[C@@H](CCC(N)=O)C(=O)O [H-N-Me-Ala-H-Gln-OH] (H-[NMeA]-Gln-OH) | 0.5
23 | CC(C)(N)C(=O)N[C@@H](CCC(N)=O)C(=O)O [H-Aib-H-Gln-OH] (H-[Aib]-Gln-OH) | 18.8
24 | C[C@H](N)C(=O)N[C@H](C(=O)O)C(C)(C)C [H-Ala-t-Leu-OH] (H-Ala-[Tle]-OH) | 0.4

same assay, conditions: carboxy component (label) 100 mM, 200 mM L-glutamine, pH 9.0, 25° C., 2 hours

Row | Compound | L-Ala-L-Gln produced [mM]
25 | COC(=O)[C@H](C)N.Cl [L-Alanine methyl ester.HCl, L-alanine methyl ester hydrochloride] | 84.3
26 | CC(C)OC(=O)[C@H](C)N.Cl [L-Alanine isopropyl ester.HCl] | 78.9
27 | C[C@H](N)C(=O)OC(C)(C)C.Cl [L-Alanine-t-butyl ester.HCl] | 7.5

same assay, conditions: oligopeptide production, amount of enzyme 1.0 units, pH 9.0, 25° C., 3 hours

Row | Compound | Produced peptide [mM]
28 | L-Tyr-Gly-Gly-L-Phe-L-Met | 2.7

same assay, conditions: β-amino acid ester as carboxy component or β-amino acid as amine component; 100 mM / 150 mM, pH 9.0, 25° C., 3 hours

Row | Compound | Produced peptide [mM]
29 | NCC(=O)NCCC(=O)O [Gly-β-Ala] | 2.2
30 | NCCC(=O)NC(CO)C(=O)O [β-Ala-L-Ser] | 3.2
31 | CC(N)C(=O)NCCC(=O)O (stereo not drawn) [Ala-β-Ala] | 7.7
32 | CC(N)C(=O)NC(CC(=O)O)c1ccccc1 (stereo not drawn) [Ala-β-Phe] | 1.4
